The text below walks through data of ChEMBL document CHEMBL1909046, “DrugMatrix in vitro pharmacology data”.

Experiment [1] concerns the target Voltage-gated inwardly rectifying potassium channel KCNH2 (Homo sapiens, UniProt Q12809). Also: in other assays of this panel Not Active means under 50% inhibition at 10 µM.
Experiment [2] in a line: DRUGMATRIX: Calcium Channel Type L, Phenylalkylamine radioligand binding (ligand: [3H] (-)-Desmethoxyverapamil (D-888)). Type of experiment: cell membranes, Rattus norvegicus, Wistar, Brain, Membrane. Particulars: Not Active = under 50% inhibition at 10 µM.

Structures are written as SMILES.

Chain of Voltage-gated inwardly rectifying potassium channel KCNH2 (Q12809 whole entry): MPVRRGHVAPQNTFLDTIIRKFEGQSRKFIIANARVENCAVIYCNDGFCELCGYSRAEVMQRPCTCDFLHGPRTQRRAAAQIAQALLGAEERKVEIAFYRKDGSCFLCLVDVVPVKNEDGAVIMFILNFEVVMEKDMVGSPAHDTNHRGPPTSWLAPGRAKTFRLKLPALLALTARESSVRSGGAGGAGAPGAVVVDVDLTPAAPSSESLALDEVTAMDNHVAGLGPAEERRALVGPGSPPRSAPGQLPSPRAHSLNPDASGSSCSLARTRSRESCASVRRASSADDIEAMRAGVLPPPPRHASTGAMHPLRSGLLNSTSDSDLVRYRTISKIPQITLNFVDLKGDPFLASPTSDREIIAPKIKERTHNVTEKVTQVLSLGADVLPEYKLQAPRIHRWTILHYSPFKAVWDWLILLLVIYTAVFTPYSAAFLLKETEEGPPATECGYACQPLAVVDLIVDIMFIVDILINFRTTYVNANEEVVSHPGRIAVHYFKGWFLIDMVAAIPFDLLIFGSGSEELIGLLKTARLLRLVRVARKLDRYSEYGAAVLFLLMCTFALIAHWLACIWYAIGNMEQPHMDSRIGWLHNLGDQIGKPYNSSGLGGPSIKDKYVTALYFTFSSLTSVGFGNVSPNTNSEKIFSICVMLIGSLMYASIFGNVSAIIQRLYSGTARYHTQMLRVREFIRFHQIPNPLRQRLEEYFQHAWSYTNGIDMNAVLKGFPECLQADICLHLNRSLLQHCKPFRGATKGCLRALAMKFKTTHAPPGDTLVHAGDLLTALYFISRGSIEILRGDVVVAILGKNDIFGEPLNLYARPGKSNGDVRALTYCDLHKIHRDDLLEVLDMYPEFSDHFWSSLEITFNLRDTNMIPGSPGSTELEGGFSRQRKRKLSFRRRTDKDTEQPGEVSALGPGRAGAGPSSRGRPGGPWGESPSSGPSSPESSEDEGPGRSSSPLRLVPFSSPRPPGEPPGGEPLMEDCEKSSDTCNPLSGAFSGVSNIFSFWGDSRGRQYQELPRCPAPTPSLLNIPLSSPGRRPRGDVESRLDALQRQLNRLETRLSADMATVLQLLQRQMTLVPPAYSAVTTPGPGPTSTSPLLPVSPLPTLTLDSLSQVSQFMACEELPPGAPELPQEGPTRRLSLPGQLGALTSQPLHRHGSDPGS

A word on the IC50: it is the concentration that gives 50% inhibition. As a reminder, the Ki is a dissociation constant, usually derived from enzyme kinetics or from competition with a known ligand. In experiment [1], `C[C@@H]1CN(c2c(F)c(N)c3c(=O)c(C(=O)O)cn(C4CC4)c3c2F)C[C@H](C)N1` [SPARFLOXACIN] displayed an IC50 of 47.1 µM and a Ki of 38.6 µM. In experiment [2], the IC50 result is reported as “Not Active” and the Ki result is “Not Active”.
